According to patent publication US8802661B2, “C-28 amides of modified C-3 betulinic acid derivatives as HIV maturation inhibitors” (priority 2010, dated 2014):
Where two headings read alike, the source gives them in different places.

Test system: recombinant NL4-3 virus (Renilla luciferase in nef, Gag P373S)
Experiment: HIV Cell Culture Assay (luciferase reporter virus in MT-2 cells)
Format: cell-based
Experimental: MT-2 cells and 293T cells were obtained from the NIH AIDS Research and Reference Reagent Program. MT-2 cells were propagated in RPMI 1640 media supplemented with 10% heat inactivated fetal bovine serum, […]. The 293T cells were propagated in DMEM media supplemented with 10% heat inactivated fetal bovine serum (FBS), 100 units/ml penicillin G and 100 μg/ml streptomycin. The proviral DNA clone of NL4-3 was obtained from the NIH AIDS Research and Reference Reagent Program. A recombinant NL4-3 virus, in which a section of the nef gene from NL4-3 was replaced with the Renilla luciferase gene, was used as a reference virus. In addition, residue Gag P373 was converted to P373S. Briefly, the recombinant virus was prepared by transfection of the altered proviral clone of NL4-3. Transfections were performed in 293T cells using LipofectAMINE PLUS from Invitrogen (Carlsbad, Calif.), according to manufacturer's instruction. The virus was titered in MT-2 cells using luciferase enzyme activity as a marker. Luciferase was quantitated using the Dual Luciferase kit from Promega (Madison, Wis.), with modifications to the manufacturer's protocol. The diluted Passive Lysis solution was pre-mixed with the re-suspended Luciferase Assay Reagent and the re-suspended Stop & Glo Substrate (2:1:1 ratio). Fifty (50) μL of the mixture was added to each aspirated well on assay plates and luciferase activity was measured immediately on a Wallac TriLux (Perkin-Elmer). Antiviral activities of inhibitors toward the recombinant virus were quantified by measuring luciferase activity in cells infected for 4-5 days with NLRluc recombinants in the presence serial dilutions of the inhibitor. Table 1 is the key for the data in Table 2.

SMILES: C=C(C)[C@@H]1CC[C@]2(C(=O)NCCN(C)C)CC[C@]3(C)[C@H](CC[C@@H]4[C@@]5(C)CC=C(c6ccc(C(=O)O)cc6)C(C)(C)[C@@H]5CC[C@]43C)[C@@H]12 [Example 16, 4-((1R,3aS,5aR,5bR,7aR,11aS,11bR,13aR,13bR)-3a-(2-(dimethylamino)ethylcarbamoyl)-5a,5b,8,8,11a-pentamethyl-1-(prop-1-en-2-yl)-2,3,3a,4,5,5a,5b,6,7,7a,8,11,11a,11b,12,13,13a,13b-octadecahydro-1H-cyclopenta[a]chrysen-9-yl)benzoic acid]
- EC50 (NL43, read-out: EC50 Group): < 0.1 µM

SMILES: C=C(C)[C@@H]1CC[C@]2(C(=O)NCCO)CC[C@]3(C)[C@H](CC[C@@H]4[C@@]5(C)CC=C(c6ccc(C(=O)O)cc6)C(C)(C)[C@@H]5CC[C@]43C)[C@@H]12 [Example 17, 4-((1R,3aS,5aR,5bR,7aR,11aS,11bR,13aR,13bR)-3a-(2-hydroxyethylcarbamoyl)-5a,5b,8,8,11a-pentamethyl-1-(prop-1-en-2-yl)-2,3,3a,4,5,5a,5b,6,7,7a,8,11,11a,11b,12,13,13a,13b-octadecahydro-1H-cyclopenta[a]chrysen-9-yl)benzoic acid]
- EC50 (NL43, read-out: EC50 Group): < 0.1 µM

SMILES: C=C(C)[C@@H]1CC[C@]2(C(=O)N(C)Cc3ccccc3)CC[C@]3(C)[C@H](CC[C@@H]4[C@@]5(C)CC=C(c6ccc(C(=O)O)cc6)C(C)(C)[C@@H]5CC[C@]43C)[C@@H]12 [Example 18, 4-((1R,3aS,5aR,5bR,7aR,11aS,11bR,13aR,13bR)-3a-(benzyl(methyl)carbamoyl)-5a,5b,8,8,11a-pentamethyl-1-(prop-1-en-2-yl)-2,3,3a,4,5,5a,5b,6,7,7a,8,11,11a,11b,12,13,13a,13b-octadecahydro-1H-cyclopenta[a]chrysen-9-yl)benzoic acid]
- EC50 (NL43, read-out: EC50 Group): > 0.1 µM

SMILES: C=C(C)[C@@H]1CC[C@]2(C(=O)N3CCCCC3)CC[C@]3(C)[C@H](CC[C@@H]4[C@@]5(C)CC=C(c6ccc(C(=O)O)cc6)C(C)(C)[C@@H]5CC[C@]43C)[C@@H]12 [Example 19, 4-((1R,3aS,5aR,5bR,7aR,11aS,11bR,13aR,13bR)-5a,5b,8,8,11a-pentamethyl-3a-(piperidine-1-carbonyl)-1-(prop-1-en-2-yl)-2,3,3a,4,5,5a,5b,6,7,7a,8,11,11a,11b,12,13,13a,13b-octadecahydro-1H-cyclopenta[a]chrysen-9-yl)benzoic acid]
- EC50 (NL43): 0.37 µM

SMILES: C=C(C)[C@@H]1CC[C@]2(C(=O)NCCc3ccccn3)CC[C@]3(C)[C@H](CC[C@@H]4[C@@]5(C)CC=C(c6ccc(C(=O)OC)cc6)C(C)(C)[C@@H]5CC[C@]43C)[C@@H]12 [Example 20, methyl 4-((1R,3aS,5aR,5bR,7aR,11aS,11bR,13aR,13bR)-5a,5b,8,8,11a-pentamethyl-1-(prop-1-en-2-yl)-3a-(2-(pyridin-2-yl)ethylcarbamoyl)-2,3,3a,4,5,5a,5b,6,7,7a,8,11,11a,11b,12,13,13a,13b-octadecahydro-1H-cyclopenta[a]chrysen-9-yl)benzoate]
- EC50 (NL43, read-out: EC50 Group): > 0.1 µM

SMILES: C=C(C)[C@@H]1CC[C@]2(C(=O)N3CCC(O)CC3)CC[C@]3(C)[C@H](CC[C@@H]4[C@@]5(C)CC=C(c6ccc(C(=O)OC)cc6)C(C)(C)[C@@H]5CC[C@]43C)[C@@H]12 [Example 21, methyl 4-((1R,3aS,5aR,5bR,7aR,11aS,11bR,13aR,13bR)-3a-(4-hydroxypiperidine-1-carbonyl)-5a,5b,8,8,11a-pentamethyl-1-(prop-1-en-2-yl)-2,3,3a,4,5,5a,5b,6,7,7a,8,11,11a,11b,12,13,13a,13b-octadecahydro-1H-cyclopenta[a]chrysen-9-yl)benzoate]
- EC50 (NL43, read-out: EC50 Group): > 0.1 µM

SMILES: C=C(C)[C@@H]1CC[C@]2(C(=O)N3CCC(O)CC3)CC[C@]3(C)[C@H](CC[C@@H]4[C@@]5(C)CC=C(c6ccc(C(=O)O)cc6)C(C)(C)[C@@H]5CC[C@]43C)[C@@H]12 [Example 22, 4-((1R,3aS,5aR,5bR,7aR,11aS,11bR,13aR,13bR)-3a-(4-hydroxypiperidine-1-carbonyl)-5a,5b,8,8,11a-pentamethyl-1-(prop-1-en-2-yl)-2,3,3a,4,5,5a,5b,6,7,7a,8,11,11a,11b,12,13,13a,13b-octadecahydro-1H-cyclopenta[a]chrysen-9-yl)benzoic acid]
- EC50 (NL43, read-out: EC50 Group): < 0.1 µM

SMILES: C=C(C)[C@@H]1CC[C@]2(C(=O)N(C)CCO)CC[C@]3(C)[C@H](CC[C@@H]4[C@@]5(C)CC=C(c6ccc(C(=O)O)cc6)C(C)(C)[C@@H]5CC[C@]43C)[C@@H]12 [Example 23, 4-((1R,3aS,5aR,5bR,7aR,11aS,11bR,13aR,13bR)-3a-((2-hydroxyethyl)(methyl)carbamoyl)-5a,5b,8,8,11a-pentamethyl-1-(prop-1-en-2-yl)-2,3,3a,4,5,5a,5b,6,7,7a,8,11,11a,11b,12,13,13a,13b-octadecahydro-1H-cyclopenta[a]chrysen-9-yl)benzoic acid]
- EC50 (NL43, read-out: EC50 Group): < 0.1 µM

SMILES: C=C(C)[C@@H]1CC[C@]2(C(=O)N(C)CCc3ccccn3)CC[C@]3(C)[C@H](CC[C@@H]4[C@@]5(C)CC=C(c6ccc(C(=O)O)cc6)C(C)(C)[C@@H]5CC[C@]43C)[C@@H]12 [Example 24, 4-((1R,3aS,5aR,5bR,7aR,11aS,11bR,13aR,13bR)-5a,5b,8,8,11a-pentamethyl-3a-(methyl(2-(pyridin-2-yl)ethyl)carbamoyl)-1-(prop-1-en-2-yl)-2,3,3a,4,5,5a,5b,6,7,7a,8,11,11a,11b,12,13,13a,13b-octadecahydro-1H-cyclopenta[a]chrysen-9-yl)benzoic acid]
- EC50 (NL43): 0.048 µM

SMILES: C=C(C)[C@@H]1CC[C@]2(C(=O)NCCC(=O)O)CC[C@]3(C)[C@H](CC[C@@H]4[C@@]5(C)CC=C(c6ccc(C(=O)O)cc6)C(C)(C)[C@@H]5CC[C@]43C)[C@@H]12 [Example 25, 4-((1R,3aS,5aR,5bR,7aR,11aS,11bR,13aR,13bR)-3a-(2-carboxyethylcarbamoyl)-5a,5b,8,8,11a-pentamethyl-1-(prop-1-en-2-yl)-2,3,3a,4,5,5a,5b,6,7,7a,8,11,11a,11b,12,13,13a,13b-octadecahydro-1H-cyclopenta[a]chrysen-9-yl)benzoic acid]
- EC50 (NL43, read-out: EC50 Group): < 0.1 µM

SMILES: C=C(C)[C@@H]1CC[C@]2(C(=O)NC)CC[C@]3(C)[C@H](CC[C@@H]4[C@@]5(C)CC=C(c6ccc(C(=O)O)cc6)C(C)(C)[C@@H]5CC[C@]43C)[C@@H]12 [Example 26, 4-((1R,3aS,5aR,5bR,7aR,11aS,11bR,13aR,13bR)-5a,5b,8,8,11a-pentamethyl-3a-(methylcarbamoyl)-1-(prop-1-en-2-yl)-2,3,3a,4,5,5a,5b,6,7,7a,8,11,11a,11b,12,13,13a,13b-octadecahydro-1H-cyclopenta[a]chrysen-9-yl)benzoic acid]
- EC50 (NL43, read-out: EC50 Group): < 0.1 µM

SMILES: C=C(C)[C@@H]1CC[C@]2(C(=O)NCCCN(C)C)CC[C@]3(C)[C@H](CC[C@@H]4[C@@]5(C)CC=C(c6ccc(C(=O)O)cc6)C(C)(C)[C@@H]5CC[C@]43C)[C@@H]12 [Example 27, 4-((1R,3aS,5aR,5bR,7aR,11aS,11bR,13aR,13bR)-3a-(3-(dimethylamino)propylcarbamoyl)-5a,5b,8,8,11a-pentamethyl-1-(prop-1-en-2-yl)-2,3,3a,4,5,5a,5b,6,7,7a,8,11,11a,11b,12,13,13a,13b-octadecahydro-1H-cyclopenta[a]chrysen-9-yl)benzoic acid]
- EC50 (NL43, read-out: EC50 Group): < 0.1 µM

SMILES: C=C(C)[C@@H]1CC[C@]2(C(=O)NCc3ccncc3)CC[C@]3(C)[C@H](CC[C@@H]4[C@@]5(C)CC=C(c6ccc(C(=O)O)cc6)C(C)(C)[C@@H]5CC[C@]43C)[C@@H]12 [Example 28, 4-((1R,3aS,5aR,5bR,7aR,11aS,11bR,13aR,13bR)-5a,5b,8,8,11a-pentamethyl-1-(prop-1-en-2-yl)-3a-(pyridin-4-ylmethylcarbamoyl)-2,3,3a,4,5,5a,5b,6,7,7a,8,11,11a,11b,12,13,13a,13b-octadecahydro-1H-cyclopenta[a]chrysen-9-yl)benzoic acid]
- EC50 (NL43, read-out: EC50 Group): < 0.1 µM

SMILES: C=C(C)[C@@H]1CC[C@]2(C(=O)NCc3cccnc3)CC[C@]3(C)[C@H](CC[C@@H]4[C@@]5(C)CC=C(c6ccc(C(=O)O)cc6)C(C)(C)[C@@H]5CC[C@]43C)[C@@H]12 [Example 29, 4-((1R,3aS,5aR,5bR,7aR,11aS,11bR,13aR,13bR)-5a,5b,8,8,11a-pentamethyl-1-(prop-1-en-2-yl)-3a-(pyridin-3-ylmethylcarbamoyl)-2,3,3a,4,5,5a,5b,6,7,7a,8,11,11a,11b,12,13,13a,13b-octadecahydro-1H-cyclopenta[a]chrysen-9-yl)benzoic acid]
- EC50 (NL43, read-out: EC50 Group): < 0.1 µM

SMILES: C=C(C)[C@@H]1CC[C@]2(C(=O)NCCNC(C)=O)CC[C@]3(C)[C@H](CC[C@@H]4[C@@]5(C)CC=C(c6ccc(C(=O)O)cc6)C(C)(C)[C@@H]5CC[C@]43C)[C@@H]12 [Example 30, 4-((1R,3aS,5aR,5bR,7aR,11aS,11bR,13aR,13bR)-3a-(2-acetamidoethylcarbamoyl)-5a,5b,8,8,11a-pentamethyl-1-(prop-1-en-2-yl)-2,3,3a,4,5,5a,5b,6,7,7a,8,11,11a,11b,12,13,13a,13b-octadecahydro-1H-cyclopenta[a]chrysen-9-yl)benzoic acid]
- EC50 (NL43, read-out: EC50 Group): < 0.1 µM
